From patent US20240115726A1, “HYDRAZONE-BASED SAPONIN DERIVATIVES” (priority 2020, published 2024)
pIC50: −log10 of the molar value.

How the values were obtained:
HeLa cells [1] = experiment: Toxicity of saponin alone, cell viability (MTS); type: cell-based; details: for toxicity, comparison in words: HeLa and A431 cells, FIG. 4; for pIC50: Homo sapiens, HeLa cells, saponin alone
Method: Next, toxicity was determined. […] SO1861-EMCH (blocked): the maleimide functional group is conjugated with mercapto-ethanol.

A431 cells [2] = experiment: Toxicity of saponin alone, cell viability (MTS); type: cell-based; details: Homo sapiens, A-431
Method: Cell viability was determined by an MTS-assay, performed according to the manufacturer's instruction (CellTiter 96® AQueous One Solution Cell Proliferation Assay, Promega). Briefly, the MTS solution was diluted 20× in DMEM without phenol red (PAN-Biotech GmbH) supplemented with 10% FBS (PAN-Biotech GmbH). The cells were washed once with 200 μL PBS per well, after which 100 μL diluted MTS solution was added per well. The plate was incubated for approximately 20-30 minutes at 37° C. Subsequently, the optical density at 492 nm was measured on a Thermo Scientific Multiskan FC plate reader (Thermo Scientific). For quantification the background signal of ‘medium only’ wells was subtracted from all other wells, before the ratio of untreated/treated cells was calculated, by dividing the background corrected signal of untreated wells over the background corrected signal of the treated wells.

Human Red blood cells = experiment: Hemolysis assay; type: cell-based; details: for hemolytic activity, comparison in words: fresh Human Red blood cells, FIG. 5
Method: Red blood cells (RBCs) were isolated from a buffy coat using a Ficoll gradient. The obtained RBC pellet (→4-5 ml) was washed 2× with 50 ml DPBS (without Ca^2+/Mg^2+, PAN-Biotech GmbH). Cells were pelleted by centrifugation for 10 min, 800×g at RT. RBC were counted and resuspended at 500,000,000 c/ml in DPBS (without Ca^2+/Mg^2+), based on total cell count. […] For positive lysis control a 0.02% Triton-X100 solution was prepared in DPBS^+/+. Of all compound solutions 135 μl was dispensed/well in a 96 well V-bottom plate. To this 15 μl RBC suspension was added and mixed shortly (10 sec-600 rpm). The plate was incubated 30 min at RT, with gentle agitation. Afterwards the plate was spun for 10 min at 800×g to pellet the RBC and 100-120 μl supernatant was transferred to a standard 96 wp. Subsequently, the OD at 405 nm was measured on a Thermo Scientific Multiskan FC plate reader (Thermo Scientific). For quantification the background signal of ‘DPBS^+/+ only’ wells was subtracted from all other wells before the percentage of hemolysis was calculated in comparison to 0.02% Triton-X100, by dividing the background corrected signal of treated wells over the background corrected signal of the 0.02% Triton-X100 wells (×100).

HeLa cells [3] = experiment: Endosomal escape enhancing activity: saponin titrated with fixed non-effective toxin conjugate, cell killing (MTS); details: for IC50: Homo sapiens, HeLa, read-out: IC50 nM (Activity; +5 pM EGFdianthin); for pIC50: HeLa cells
Method: (§1) Cell viability was determined by an MTS-assay, performed according to the manufacturer's instruction (CellTiter 96® AQueous One Solution Cell Proliferation Assay, Promega). Briefly, the MTS solution was diluted 20× in DMEM without phenol red (PAN-Biotech GmbH) supplemented with 10% FBS (PAN-Biotech GmbH). The cells were washed once with 200 μL PBS per well, after which 100 μL diluted MTS solution was added per well. The plate was incubated for approximately 20-30 minutes at 37° C. […] For quantification the background signal of ‘medium only’ wells was subtracted from all other wells, before the ratio of untreated/treated cells was calculated, by dividing the background corrected signal of untreated wells over the background corrected signal of the treated wells.

A431 cells [4] = experiment: as above; details: for IC50: Homo sapiens, A-431, read-out: IC50 nM (Activity; +5 pM EGFdianthin)
Method: as §1

| SMILES | toxicity, comparison in words (HeLa cells [1]) | pIC50 (HeLa cells [1]) | pIC50 (A431 cells [2]) | pIC50 (Human Red blood cells; Homo sapiens, Erythrocyte, red blood cells, Table 3) | hemolytic activity, comparison in words (Human Red blood cells) | IC50 (HeLa cells [3]) | pIC50 (HeLa cells [3]; read-out: IC50 (activity; +10 pM Cetuximab-saporin), +10 pM Cetuximab-saporin) | pIC50 (HeLa cells [3]; read-out: IC50 (activity; +50 pM Trastuzumab-saporin), +50 pM Trastuzumab-saporin) | IC50 (A431 cells [4]) | pIC50 (A431 cells [4]; read-out: IC50 (activity; +10 pM Cetuximab-saporin), A431 cells, +10 pM Cetuximab-saporin) | endosomal escape enhancing activity, comparison in words (HeLa cells [3]; HeLa and A431 cells, with EGFdianthin, Cetuximab-saporin or Trastuzumab-saporin, FIG. 1-3) |
| --- | --- | --- | --- | --- | --- | --- | --- | --- | --- | --- | --- |
| CC(=O)OC1C(C)OC(OC2C(C)OC(OC(=O)[C@]34CCC(C)(C)CC3C3=CCC5[C@@]6(C)CC[C@H](OC7OC(C(=O)O)C(O)C(OC8OCC(O)C(O)C8O)C7OC7OC(CO)C(O)C(O)C7O)CC6[C@@](C)(/C=N/NC(=O)CCOCCOCCOCCOCCN6N=NC7c8ccccc8CN(C(=O)CCC(=O)ON8C(=O)CCC8=O)c8ccccc8C76)C[C@@]5(C)[C@]3(C)C[C@H]4O)C(OC3OC(C)C(OC4OCC(O)C(OC5OC(CO)C(O)C(O)C5O)C4O)C(O)C3O)C2O)C(O)C1OC1OCC(O)C(O)C1O (stereo partly drawn) | comparable with the toxicity observed with SO1861-EMCH | < 4.00 | < 4.52 | < 3.00 | comparable hemolytic activity | 4000 nM | 5.70 | 5.52 | 3000 nM | 5.70 |  |
| CC(=O)OC1C(C)OC(OC2C(C)OC(OC(=O)[C@]34CCC(C)(C)CC3C3=CCC5[C@@]6(C)CC[C@H](OC7OC(C(=O)O)C(O)C(OC8OCC(O)C(O)C8O)C7OC7OC(CO)C(O)C(O)C7O)[C@@](C)(C=O)C6CC[C@@]5(C)[C@]3(C)C[C@H]4O)C(OC3OC(C)C(OC4OCC(O)C(OC5OC(CO)C(O)C(O)C5O)C4O)C(O)C3O)C2O)C(O)C1OC1OCC(O)C(O)C1O (stereo partly drawn) [SO1861, reference compound] | strongest toxicity | 5.05 |  |  |  | 500 nM |  |  | 300 nM |  | strongest activity |
| CC(=O)OC1C(C)OC(OC2C(C)OC(OC(=O)[C@]34CCC(C)(C)CC3C3=CCC5[C@@]6(C)CC[C@H](OC7OC(C(=O)O)C(O)C(OC8OCC(O)C(O)C8O)C7OC7OC(CO)C(O)C(O)C7O)[C@@](C)(/C=N/NC(=O)CCCCCN7C(=O)C=CC7=O)C6CC[C@@]5(C)[C@]3(C)C[C@H]4O)C(OC3OC(C)C(OC4OCC(O)C(OC5OC(CO)C(O)C(O)C5O)C4O)C(O)C3O)C2O)C(O)C1OC1OCC(O)C(O)C1O (stereo partly drawn) [SO1861-EMCH, reference compound] |  |  | < 4.52 |  | comparable hemolytic activity | 4000 nM |  |  |  |  |  |
